# Experimental data from patent US11419856B2, “Pharmaceutical combinations for use in the treatment of neoplastic diseases” (Basilea Pharmaceutica International AG, priority 2017, dated 2022).
# Experiments:
# [1] = Tolerability in the MDA-MB-231 xenograft model (body weight, mortalities); details: for Final body-weight / Body-weight change: mean ± SD
# Procedure: (§1) The mice were housed on irradiated Enrich-o'Cobs™ Laboratory Animal Bedding in static micro-isolators on a 12-hour light cycle at 20-22° C. (68-72° F.) and 40-60% humidity. Charles River Discovery Services North Carolina (CR Discovery Services) specifically complies with the recommendations of the Guide for Care and Use of Laboratory Animals with respect to restraint, husbandry, surgical procedures, feed and fluid regulation, and veterinary care. The animal care and use program at CR Discovery Services is accredited by the Association for Assessment and Accreditation of Laboratory Animal Care International (AAALAC), which assures compliance with accepted standards for the care and use of laboratory animals. These considerations were taken into account in the way that the dosage regimes were designed and implemented.
# All doses were adjusted to 10 mL/kg. The control groups received oral doses of vehicle (pH 5 buffered 0.9% NaCl solution). Eribulin was administered i.v. and BAL101553 orally. When eribulin and BAL0101553 were dosed in combination, Eribulin was administered to all groups first followed by BAL0101553 dosing within 30 minutes of the first regimen.
# Body weights were recorded daily for days 1-5 and then twice weekly until the end of the study and tumor volumes were recorded twice weekly until the end of the experiment. These parameters were analyzed and graphically represented by using GraphPad-Prism™ 5 for Windows according to standard procedure. […] Skin and subcutaneous tissue including the tumor cell inoculation site from the flank region were resected, preserved in formalin and embedded in paraffin. Sections of approximately 5 μm were mounted on glass slides and stained with hematoxylin/eosin and were evaluated by a trained pathologist, to identify residual tumor cells at the site of injection, and were being reported as positive for the existence of residual tumor cells or as negative for a complete lack of any evidence of residual tumor cells.
# [2] = tested on: MDA-MB-231 xenograft (human triple negative breast cancer); assay: Antitumor efficacy and induction of cures in the MDA-MB-231 xenograft model (Examples 1A, 1B); type: in vivo, mouse
# Procedure: as §1, with “Female athymic nude mice (Crl:NU(NCr)-Foxnlnu, Charles River) were used when ten weeks old with a body weight (BW) range of 19.7-27.1 g on Day 1 of the study. The animals were fed ad libitum water (reverse osmosis, 1 ppm Cl) and NIH 31 Modified and Irradiated Lab Diet® consisting of 18.0% crude protein, 5.0% crude fat, and 5.0% crude fiber. The mice” for “The mice”
# The human MDA-MB-231 breast adenocarcinoma cells were grown to mid-log phase in RPMI-1640 medium containing 10% fetal bovine serum, 2 mM glutamine, 100 units/mL sodium penicillin G, 25 μg/mL gentamicin, and 100 μg/mL streptomycin sulfate. The tumor cells were cultured in tissue culture flasks in a humidified incubator at 37° C./5% CO2 and 95% air, harvested during exponential growth and resuspended in cold Phosphate-buffered saline (PBS). Each test animal received a subcutaneous (s.c.) injection of 5×10^6 MDA-MB-231 cells (0.1 mL cell suspension) into the right flank, and tumor growth was monitored as the average tumor size approached the target range of 100-150 mm^3. Tumors were measured (mm) in two dimensions using calipers, and volume was calculated using the formula: Tumor Volume (TV) (mm^3)=(width^2×length)/2. Eighteen days after tumor cell implantation, on Day 1 of the study, mice with individual tumor volumes ranging from 75 to 172 mm^3 were randomized into groups of 8-10 animals, with group mean tumor volumes of 114-124 mm^3.
# BAL0101553 was dissolved in 0.9% NaCl in water buffered to pH 5 with 1% sodium acetate to yield 2, 2.5 and 3 mg/mL dosing solutions, providing 20, 25 and 30 mg/kg dosages, respectively, in 10 mL/kg dosing volumes. Eribulin (purchased from Eisai Co., Lot. No. 6217, 6288, 6289 and 6309) at 0.5 mg/mL concentration was diluted in saline to yield a 0.01, 0.025 and 0.05 mg/mL dosing solutions, providing 0.1, 0.25 and 0.5 mg/kg dosages, respectively, in a dosing volume of 10 mL/kg.
# Groups of mice (n=8-10) bearing MDA-MB-231 tumors were dosed as outlined in the Tables 1 and 3. All doses were adjusted to 10 mL/kg. The control groups received oral doses of vehicle (pH 5 buffered 0.9% NaCl solution). Eribulin was administered i.v. and BAL101553 orally. When eribulin and BAL0101553 were dosed in combination, Eribulin was administered to all groups first followed by BAL0101553 dosing within 30 minutes of the first regimen.
# Body weights were recorded daily for days 1-5 and then twice weekly until the end of the study and tumor volumes were recorded twice weekly until the end of the experiment. These parameters were analyzed and graphically represented by using GraphPad-Prism™ 5 for Windows according to standard procedure. […] Tumor free animals at the end of the study time were assessed for residual MDA-MB-231 tumor cells by pathological methods. Skin and subcutaneous tissue including the tumor cell inoculation site from the flank region were resected, preserved in formalin and embedded in paraffin.
# [3] = E1A, Day 25, p.o. 20 mg/kg qd x5/qw D1-D9, 20 mg/kg qd D12-D34
# [4] = E1A, Day 25, p.o. 30 mg/kg qd x5/qw D1-D9, 25 mg/kg qd D12-D34
# [5] = E1B, Day 26, p.o. 20 mg/kg qd D1-D21, 20 mg/kg qd D25-D43
# [6] = Day 26, BAL101553 p.o. 20 mg/kg qd D1-D21, 20 mg/kg qd D25-D43
# [7] = Day 100 (endpoint), BAL101553 p.o. 20 mg/kg qd D1-D21, 20 mg/kg qd D25-D43
# [8] = E1A, Day 85 (endpoint), p.o. 20 mg/kg qd x5/qw D1-D9, 20 mg/kg qd D12-D34
# [9] = E1A, Day 85 (endpoint), p.o. 30 mg/kg qd x5/qw D1-D9, 25 mg/kg qd D12-D34
compound,measurement,setting,value
"N#CCCNc1nonc1-c1nc2ccccc2n1CC(=O)c1ccc(NC(=O)[C@@H](N)CCCCN)cc1 [BAL101553, (S)-2,6-Diamino-hexanoic acid [4-(2-{2-[4-(2-cyano-ethylamino)-furazan-3-yl]-benzoimidazol-1-yl}-acetyl)-phenyl]-amide]",Final body-weight,[1]; [3],26.6 ± 1.6 g
same,Final body-weight,[1]; [4],25 ± 1.9 g
same,"T/C (TC-BW, body weight)",[1]; [3],1.02
same,"T/C (TC-BW, body weight)",[1]; [4],1.00
same,Body-weight change,"[1]; E1A, day-0 until day-25, p.o. 20 mg/kg qd x5/qw D1-D9, 20 mg/kg qd D12-D34",2.8 ± 0.7 g
same,Body-weight change,"[1]; E1A, day-0 until day-25, p.o. 30 mg/kg qd x5/qw D1-D9, 25 mg/kg qd D12-D34",2.0 ± 0.8 g
same,Mortalities,"[1]; E1A, p.o. 20 mg/kg qd x5/qw D1-D9, 20 mg/kg qd D12-D34",0/8
same,Final body-weight,[1]; [5],25.9 ± 1.4 g
same,"T/C (TC-BW, body weight)",[1]; [5],1.04
same,Body-weight change,"[1]; E1B, day-0 until day-26, p.o. 20 mg/kg qd D1-D21, 20 mg/kg qd D25-D43",2.6 ± 0.7 g
same,Mortalities,"[1]; E1B, p.o. 20 mg/kg qd D1-D21, 20 mg/kg qd D25-D43",0/10
same,# of regressed tumors (total),[2]; [6],1 (10)
same,T/C,[2]; [6],0.12
same,# of confirmed cures (total),[2]; [7],1 (10)
same,# of tumors with TV ≤ 4 mm^3 (total),[2]; [7],0 (10)
same,% cures,[2]; [7],10%
same,# of regressed tumors (total),[2]; [3],0 (8)
same,T/C,[2]; [3],0.21
same,# of regressed tumors (total),[2]; [4],4 (8)
same,T/C,[2]; [4],0.07
same,# of confirmed cures (total),[2]; [8],0 (8)
same,# of tumors with TV ≤ 4 mm^3 (total),[2]; [8],0 (8)
same,% cures,[2]; [8],0%
same,# of confirmed cures (total),[2]; [9],0 (8)
same,# of tumors with TV ≤ 4 mm^3 (total),[2]; [9],0 (8)
same,% cures,[2]; [9],0%
